Test results reported in patent publication US7407775B2, “Method for identifying Listeria monocytogenes and culture medium” (Biomerieux S.A., priority 2000, dated 2008).

Key:
Test in all cases: Experiment 1: esterase substrates, same chromogenic marker, fatty acids of different chain lengths
Assay type in all cases: cell-based
Set-up in all cases: key: —: the symbol “-” corresponds to the absence of color or intensity; 0 corresponds to no activity; 0.1 corresponds to a trace of color; 0.5 corresponds to very pale coloration; 1 corresponds to clear but low-intensity coloration; 1.5 corresponds to a degree of coloration intermediate between scores 1 and 2; 2 corresponds to clear coloration of moderate intensity; 2.5 corresponds to a degree of coloration intermediate between scores 2 and 3; 3 corresponds to intense coloration; 3.5 corresponds to a degree of coloration intermediate between scores 3 and 4; 4 corresponds to very intense coloration
Conditions in all cases: 37° C., substrate 250 mg/l
Listeria seeligeri 011 = test system: Listeria seeligeri 011
Description: (§1) A stock solution of each substrate at a concentration of 40 g/l was made up in a mixture of 40% Dimethylsulfoxide and 60% Polyoxyethylenesorbitan Monolaurate (Tween 20). An appropriate volume was added to three Columbia-type media while cooling to give a final substrate concentration of 250 mg/l. These dishes were divided into three areas and then each area was inoculated with a suspension (density=0.5 McFarland) of microorganisms taken from either the Applicant's own collection or the ATCC. The dishes were incubated for 48 hours at 37° C. The colonies which grew were examined by eye after 24 and 48 hours of incubation. Both the color and the intensity of the color of the colonies were recorded.
(§2) In Table 1 above, as in the following Tables, C represents the color of the colonies after incubation, I represents the intensity of the color, and the symbol “-” corresponds to the absence of color or intensity; finally, IT defines the incubation time. It should be noted that the intensity of the color is scored on an arbitrary scale but one which is consistent for all the biological specimens and media tested. This scale is valid for this experiment as well as all those that follow. It can be defined in the following way: • 0 corresponds to no activity, • 0.1 corresponds to a trace of color, • 0.5 corresponds to very pale coloration, • 1 corresponds to clear but low-intensity coloration, • 1.5 corresponds to a degree of coloration intermediate between scores 1 and 2, • 2 corresponds to clear coloration of moderate intensity, • 2.5 corresponds to a degree of coloration intermediate between scores 2 and 3, • 3 corresponds to intense coloration, • 3.5 corresponds to a degree of coloration intermediate between scores 3 and 4, • 4 corresponds to very intense coloration.

Listeria welshimeri 078 = test system: Listeria welshimeri 078
Description: as §1, §2

Listeria innocua 171 = test system: Listeria innocua 171
Description: as §1, §2

Listeria ivanovii 018 = test system: Listeria ivanovii 018
Description: as §1, §2

[1] = test system: Listeria grayi ATCC 19120
Description: as §1, §2

Listeria innocua 166 = test system: Listeria innocua 166
Description: as §1, §2

Listeria ivanovii 025 = test system: Listeria ivanovii 025
Description: as §1, §2

For `CCCCCCCC(=O)Oc1c[nH]c2ccc(Br)cc12` [Blue-C8, 5-Bromo-3-indolyl octanoate], the “C (color of the colonies)” value (Listeria seeligeri 011; IT 24 h) was “—”, the “I (intensity of the color)” value (Listeria seeligeri 011; IT 24 h) was “—” and the “C (color of the colonies)” value (Listeria seeligeri 011; IT 48 h) was “gray”. For the same compound, the “I (intensity of the color)” value (Listeria seeligeri 011; IT 48 h) was 0.5, the “C (color of the colonies)” value (Listeria welshimeri 078; IT 24 h) was “gray” and the “I (intensity of the color)” value (Listeria welshimeri 078; IT 24 h) was 0.5. The “C (color of the colonies)” value (Listeria welshimeri 078; IT 48 h) was “gray”, the “I (intensity of the color)” value (Listeria welshimeri 078; IT 48 h) was 1 and the “C (color of the colonies)” value (Listeria innocua 171; IT 24 h) was “—”. For the same compound, the “I (intensity of the color)” value (Listeria innocua 171; IT 24 h) was “—”, the “C (color of the colonies)” value (Listeria innocua 171; IT 48 h) was “gray” and the “I (intensity of the color)” value (Listeria innocua 171; IT 48 h) was 0.3. For the same compound, the “C (color of the colonies)” value (Listeria ivanovii 018; IT 24 h) was “—”, the “I (intensity of the color)” value (Listeria ivanovii 018; IT 24 h) was “—” and the “C (color of the colonies)” value (Listeria ivanovii 018; IT 48 h) was “—”. The “I (intensity of the color)” value (Listeria ivanovii 018; IT 48 h) was “—”, the “C (color of the colonies)” value ([1]; IT 24 h) was “—” and the “I (intensity of the color)” value ([1]; IT 24 h) was “—”. The “C (color of the colonies)” value ([1]; IT 48 h) was “—”, the “I (intensity of the color)” value ([1]; IT 48 h) was “—” and the “C (color of the colonies)” value (Listeria innocua 166; IT 24 h) was “gray”. The “I (intensity of the color)” value (Listeria innocua 166; IT 24 h) was 0.3, the “C (color of the colonies)” value (Listeria innocua 166; IT 48 h) was “gray” and the “I (intensity of the color)” value (Listeria innocua 166; IT 48 h) was 1. The “C (color of the colonies)” value (Listeria ivanovii 025; IT 24 h) was “—”, the “I (intensity of the color)” value (Listeria ivanovii 025; IT 24 h) was “—” and the “C (color of the colonies)” value (Listeria ivanovii 025; IT 48 h) was “—”. The “I (intensity of the color)” value (Listeria ivanovii 025; IT 48 h) was “—”.
With `CCCCCCCCC(=O)Oc1c[nH]c2ccc(Br)cc12` [Blue-C9, 5-Bromo-3-indolyl nonanoate] the “C (color of the colonies)” value (Listeria seeligeri 011; IT 24 h) was “—”, the “I (intensity of the color)” value (Listeria seeligeri 011; IT 24 h) was “—” and the “C (color of the colonies)” value (Listeria seeligeri 011; IT 48 h) was “gray”. For the same compound, the “I (intensity of the color)” value (Listeria seeligeri 011; IT 48 h) was 0.5, the “C (color of the colonies)” value (Listeria welshimeri 078; IT 24 h) was “gray” and the “I (intensity of the color)” value (Listeria welshimeri 078; IT 24 h) was 0.5. For the same compound, the “C (color of the colonies)” value (Listeria welshimeri 078; IT 48 h) was “gray”, the “I (intensity of the color)” value (Listeria welshimeri 078; IT 48 h) was 1 and the “C (color of the colonies)” value (Listeria innocua 171; IT 24 h) was “—”. For the same compound, the “I (intensity of the color)” value (Listeria innocua 171; IT 24 h) was “—”, the “C (color of the colonies)” value (Listeria innocua 171; IT 48 h) was “gray” and the “I (intensity of the color)” value (Listeria innocua 171; IT 48 h) was 0.3. The “C (color of the colonies)” value (Listeria ivanovii 018; IT 24 h) was “—”, the “I (intensity of the color)” value (Listeria ivanovii 018; IT 24 h) was “—” and the “C (color of the colonies)” value (Listeria ivanovii 018; IT 48 h) was “—”. For the same compound, the “I (intensity of the color)” value (Listeria ivanovii 018; IT 48 h) was “—”, the “C (color of the colonies)” value ([1]; IT 24 h) was “—” and the “I (intensity of the color)” value ([1]; IT 24 h) was “—”. For the same compound, the “C (color of the colonies)” value ([1]; IT 48 h) was “—”, the “I (intensity of the color)” value ([1]; IT 48 h) was “—” and the “C (color of the colonies)” value (Listeria innocua 166; IT 24 h) was “—”. The “I (intensity of the color)” value (Listeria innocua 166; IT 24 h) was “—”, the “C (color of the colonies)” value (Listeria innocua 166; IT 48 h) was “gray” and the “I (intensity of the color)” value (Listeria innocua 166; IT 48 h) was 0.5. The “C (color of the colonies)” value (Listeria ivanovii 025; IT 24 h) was “—”, the “I (intensity of the color)” value (Listeria ivanovii 025; IT 24 h) was “—” and the “C (color of the colonies)” value (Listeria ivanovii 025; IT 48 h) was “—”. The “I (intensity of the color)” value (Listeria ivanovii 025; IT 48 h) was “—”.
`CCCCCCCCCC(=O)Oc1c[nH]c2ccc(Br)cc12` [Blue-C10, 5-Bromo-3-indolyl decanoate] was tested, and the “C (color of the colonies)” value (Listeria seeligeri 011; IT 24 h) was “—”, the “I (intensity of the color)” value (Listeria seeligeri 011; IT 24 h) was “—” and the “C (color of the colonies)” value (Listeria seeligeri 011; IT 48 h) was “gray”. For the same compound, the “I (intensity of the color)” value (Listeria seeligeri 011; IT 48 h) was 0.5, the “C (color of the colonies)” value (Listeria welshimeri 078; IT 24 h) was “—” and the “I (intensity of the color)” value (Listeria welshimeri 078; IT 24 h) was “—”. For the same compound, the “C (color of the colonies)” value (Listeria welshimeri 078; IT 48 h) was “gray”, the “I (intensity of the color)” value (Listeria welshimeri 078; IT 48 h) was 0.5 and the “C (color of the colonies)” value (Listeria innocua 171; IT 24 h) was “—”. The “I (intensity of the color)” value (Listeria innocua 171; IT 24 h) was “—”, the “C (color of the colonies)” value (Listeria innocua 171; IT 48 h) was “gray” and the “I (intensity of the color)” value (Listeria innocua 171; IT 48 h) was 0.3. For the same compound, the “C (color of the colonies)” value (Listeria ivanovii 018; IT 24 h) was “—”, the “I (intensity of the color)” value (Listeria ivanovii 018; IT 24 h) was “—” and the “C (color of the colonies)” value (Listeria ivanovii 018; IT 48 h) was “—”. The “I (intensity of the color)” value (Listeria ivanovii 018; IT 48 h) was “—”, the “C (color of the colonies)” value ([1]; IT 24 h) was “—” and the “I (intensity of the color)” value ([1]; IT 24 h) was “—”. For the same compound, the “C (color of the colonies)” value ([1]; IT 48 h) was “—”, the “I (intensity of the color)” value ([1]; IT 48 h) was “—” and the “C (color of the colonies)” value (Listeria innocua 166; IT 24 h) was “—”. For the same compound, the “I (intensity of the color)” value (Listeria innocua 166; IT 24 h) was “—”, the “C (color of the colonies)” value (Listeria innocua 166; IT 48 h) was “gray” and the “I (intensity of the color)” value (Listeria innocua 166; IT 48 h) was 0.5. The “C (color of the colonies)” value (Listeria ivanovii 025; IT 24 h) was “—”, the “I (intensity of the color)” value (Listeria ivanovii 025; IT 24 h) was “—” and the “C (color of the colonies)” value (Listeria ivanovii 025; IT 48 h) was “—”. For the same compound, the “I (intensity of the color)” value (Listeria ivanovii 025; IT 48 h) was “—”.
